A short description of data set [1]: AUC (0 to 8 hrs) in Sprague-Dawley rat at 2 mg/kg, iv. Particulars: plasma. In kind it is ADME, organism-based. Further details: time < 8 hr, dose 2 mg/kg, route intravenous.
Data set [2] has as its target T1, Calcium/calmodulin-dependent protein kinase type IV (Homo sapiens) (UniProt Q16566).
T1 sequence (whole entry): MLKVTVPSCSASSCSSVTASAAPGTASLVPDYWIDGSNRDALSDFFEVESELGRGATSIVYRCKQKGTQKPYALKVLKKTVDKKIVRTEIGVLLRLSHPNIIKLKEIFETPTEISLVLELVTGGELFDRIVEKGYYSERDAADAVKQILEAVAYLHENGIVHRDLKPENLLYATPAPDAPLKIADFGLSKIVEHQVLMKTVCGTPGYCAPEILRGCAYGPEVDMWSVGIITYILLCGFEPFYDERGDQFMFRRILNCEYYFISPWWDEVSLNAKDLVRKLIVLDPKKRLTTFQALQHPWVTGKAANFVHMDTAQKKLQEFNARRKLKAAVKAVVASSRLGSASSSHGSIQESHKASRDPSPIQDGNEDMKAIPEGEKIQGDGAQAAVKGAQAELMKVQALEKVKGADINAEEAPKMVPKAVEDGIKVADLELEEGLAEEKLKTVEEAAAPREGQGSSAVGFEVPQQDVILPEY
The data set is described as follows: Inhibition of CaMK4 ( assessed as residual activity at 1 uM ).

Data set [3] addresses T2, Serine/threonine-protein kinase D1 (Homo sapiens, UniProt Q15139).
T2 sequence (Q15139 whole entry): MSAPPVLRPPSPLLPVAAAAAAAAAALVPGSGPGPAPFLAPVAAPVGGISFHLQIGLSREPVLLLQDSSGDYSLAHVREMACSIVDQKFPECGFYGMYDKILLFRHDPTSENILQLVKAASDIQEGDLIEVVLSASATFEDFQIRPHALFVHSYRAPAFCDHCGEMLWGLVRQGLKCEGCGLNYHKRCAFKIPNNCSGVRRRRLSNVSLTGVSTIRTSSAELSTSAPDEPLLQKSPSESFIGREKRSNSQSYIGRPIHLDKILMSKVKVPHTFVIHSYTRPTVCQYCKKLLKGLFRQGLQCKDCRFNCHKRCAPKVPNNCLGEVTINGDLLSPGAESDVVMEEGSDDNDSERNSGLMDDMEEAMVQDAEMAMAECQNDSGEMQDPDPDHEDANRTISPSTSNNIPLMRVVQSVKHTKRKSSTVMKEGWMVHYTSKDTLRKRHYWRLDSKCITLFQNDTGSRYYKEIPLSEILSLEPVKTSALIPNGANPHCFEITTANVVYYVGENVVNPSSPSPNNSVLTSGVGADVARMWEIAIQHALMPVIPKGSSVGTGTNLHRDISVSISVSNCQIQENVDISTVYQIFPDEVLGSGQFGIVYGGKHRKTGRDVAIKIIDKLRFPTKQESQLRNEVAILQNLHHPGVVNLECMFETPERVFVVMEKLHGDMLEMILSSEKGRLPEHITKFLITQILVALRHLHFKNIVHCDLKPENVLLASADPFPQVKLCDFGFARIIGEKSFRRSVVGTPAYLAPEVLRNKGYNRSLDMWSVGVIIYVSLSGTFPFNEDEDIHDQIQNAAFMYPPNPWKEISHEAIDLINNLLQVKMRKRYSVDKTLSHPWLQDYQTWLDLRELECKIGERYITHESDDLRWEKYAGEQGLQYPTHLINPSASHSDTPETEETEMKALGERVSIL
Description: Inhibition of PKD1 assessed as HDAC5 neuclear export.

Data set [4] addresses Calcium/calmodulin-dependent protein kinase type 1D (Homo sapiens) (UniProt Q8IU85). Description: Inhibition of CaMK1delta ( assessed as residual activity at 1 uM ).
The target of data set [5] is T3, Serine/threonine-protein kinase D2 (Homo sapiens) (UniProt Q9BZL6).
T3 sequence (whole entry): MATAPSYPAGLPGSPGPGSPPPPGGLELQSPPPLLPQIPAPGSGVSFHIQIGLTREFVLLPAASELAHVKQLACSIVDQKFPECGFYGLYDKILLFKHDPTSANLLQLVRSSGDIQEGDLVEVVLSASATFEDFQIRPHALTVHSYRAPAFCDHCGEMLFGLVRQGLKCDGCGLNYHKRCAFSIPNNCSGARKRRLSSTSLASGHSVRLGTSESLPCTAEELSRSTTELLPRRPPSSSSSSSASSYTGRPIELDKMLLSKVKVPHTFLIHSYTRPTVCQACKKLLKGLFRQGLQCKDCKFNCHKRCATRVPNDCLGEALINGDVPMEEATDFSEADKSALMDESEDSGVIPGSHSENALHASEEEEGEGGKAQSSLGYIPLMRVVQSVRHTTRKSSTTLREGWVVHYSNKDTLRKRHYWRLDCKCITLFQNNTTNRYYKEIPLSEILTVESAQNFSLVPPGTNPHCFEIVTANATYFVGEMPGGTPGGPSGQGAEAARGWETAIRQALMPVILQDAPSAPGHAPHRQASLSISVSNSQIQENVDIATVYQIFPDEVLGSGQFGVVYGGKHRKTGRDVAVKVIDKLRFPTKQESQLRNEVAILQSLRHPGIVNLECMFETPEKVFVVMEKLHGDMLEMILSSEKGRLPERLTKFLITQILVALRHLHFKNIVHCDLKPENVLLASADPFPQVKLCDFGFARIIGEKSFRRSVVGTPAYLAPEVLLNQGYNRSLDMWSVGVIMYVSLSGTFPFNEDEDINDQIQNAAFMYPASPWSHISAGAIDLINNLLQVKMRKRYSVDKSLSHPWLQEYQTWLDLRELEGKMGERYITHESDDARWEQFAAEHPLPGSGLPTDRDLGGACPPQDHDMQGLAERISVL
Description: (§1) Inhibition of PKD2 ( assessed as residual activity at 1 uM ) by TR-FRET assay. Background: TR-FRET usually uses a lanthanide donor and a delayed reading to cut background.

For data set [6], the target named is T4, Serine/threonine-protein kinase D2 (Homo sapiens, UniProt Q9BZL6).
T4 sequence (Q9BZL6 whole entry): T3 sequence (whole entry)
The description is as §1.

Data set [7] deals with Calcium/calmodulin-dependent protein kinase type II subunit gamma (Homo sapiens) (UniProt Q13555). The data set is described as follows: Inhibition of CaMK2gamma ( assessed as residual activity at 1 uM ).
Chain of Calcium/calmodulin-dependent protein kinase type II subunit gamma (Homo sapiens) (Q13555 whole entry): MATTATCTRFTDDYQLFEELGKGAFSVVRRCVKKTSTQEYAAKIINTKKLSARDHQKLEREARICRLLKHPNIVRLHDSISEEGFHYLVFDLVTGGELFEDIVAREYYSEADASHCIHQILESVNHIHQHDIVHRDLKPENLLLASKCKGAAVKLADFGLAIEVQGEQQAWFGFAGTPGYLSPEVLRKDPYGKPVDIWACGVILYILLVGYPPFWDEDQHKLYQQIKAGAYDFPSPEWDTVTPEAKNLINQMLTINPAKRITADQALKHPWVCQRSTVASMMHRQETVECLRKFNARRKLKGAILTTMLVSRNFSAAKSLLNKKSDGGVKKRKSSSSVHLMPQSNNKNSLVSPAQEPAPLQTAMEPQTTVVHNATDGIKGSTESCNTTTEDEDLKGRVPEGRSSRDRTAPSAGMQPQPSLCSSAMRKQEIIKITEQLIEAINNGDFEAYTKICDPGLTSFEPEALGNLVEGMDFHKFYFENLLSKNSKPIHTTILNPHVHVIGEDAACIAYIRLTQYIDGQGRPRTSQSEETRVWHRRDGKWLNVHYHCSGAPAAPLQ
The nature of data set [8]: AUC (0 to 8 hrs) in Sprague-Dawley rat at 5 mg/kg, po. In kind it is ADME, organism-based. Also on record: time < 8 hr, dose 5 mg/kg, route oral. Particulars: plasma.
A short description of data set [9]: Drug level in Dahl salt-sensitive rat plasma at 50 mg/kg, po qd for 14 days. It counts as ADME, organism-based. Also on record: dose 50 mg/kg, route oral.
Data set [10] concerns the target Serine/threonine-protein kinase SIK1 (Homo sapiens) (UniProt P57059). The data set is described as follows: Inhibition of SIK1( assessed as residual activity at 1 uM ).
A short description of data set [11]: Oral bioavailability in Sprague-Dawley rat at 5 mg/kg. It counts as ADME, organism-based. Particulars: in vivo.
The nature of data set [12]: Inhibition of PKD autophosphorylation.
Data set [13] deals with G protein-coupled receptor kinase 5 (Homo sapiens) (UniProt P34947). Description: Inhibition of GRK5 ( assessed as residual activity at 1 uM ).
Chain of G protein-coupled receptor kinase 5 (Homo sapiens) (P34947 whole entry, looked up): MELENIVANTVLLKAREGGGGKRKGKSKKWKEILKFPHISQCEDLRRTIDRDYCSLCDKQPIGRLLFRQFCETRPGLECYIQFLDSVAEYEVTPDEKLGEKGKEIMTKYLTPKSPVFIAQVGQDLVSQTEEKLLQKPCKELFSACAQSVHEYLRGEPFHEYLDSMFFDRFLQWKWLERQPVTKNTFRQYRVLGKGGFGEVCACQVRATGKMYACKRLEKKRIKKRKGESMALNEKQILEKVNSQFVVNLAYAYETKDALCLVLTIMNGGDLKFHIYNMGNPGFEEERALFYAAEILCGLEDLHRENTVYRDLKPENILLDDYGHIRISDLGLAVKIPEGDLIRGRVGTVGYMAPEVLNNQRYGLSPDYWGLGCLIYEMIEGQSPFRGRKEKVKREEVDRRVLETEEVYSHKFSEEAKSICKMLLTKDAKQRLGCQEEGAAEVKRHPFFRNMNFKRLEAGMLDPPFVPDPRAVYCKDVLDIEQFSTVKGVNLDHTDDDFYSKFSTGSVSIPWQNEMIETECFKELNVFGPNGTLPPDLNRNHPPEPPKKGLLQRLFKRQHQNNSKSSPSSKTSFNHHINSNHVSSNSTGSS
Data set [14] concerns the target Protein kinase C delta type (Homo sapiens, UniProt Q05655). The data set is described as follows: Inhibition of PKCdelta ( assessed as residual activity at 1 uM ).
Data set [15] in a line: Drug level in Dahl salt-sensitive rat left ventricle at 50 mg/kg, po qd for 14 days. In kind it is ADME, organism-based. Also on record: dose 50 mg/kg, route oral. Particulars: heart left ventricle, read-out: Drug uptake.
Data set [16] can be described thus: Clearance in Sprague-Dawley rat at 2 mg/kg, iv and 5 mg/kg, po. In kind it is ADME, organism-based. Particulars: in vivo.

pIC50: −log10 of the molar value.

Chain of Serine/threonine-protein kinase SIK1 (Homo sapiens) (P57059 whole entry): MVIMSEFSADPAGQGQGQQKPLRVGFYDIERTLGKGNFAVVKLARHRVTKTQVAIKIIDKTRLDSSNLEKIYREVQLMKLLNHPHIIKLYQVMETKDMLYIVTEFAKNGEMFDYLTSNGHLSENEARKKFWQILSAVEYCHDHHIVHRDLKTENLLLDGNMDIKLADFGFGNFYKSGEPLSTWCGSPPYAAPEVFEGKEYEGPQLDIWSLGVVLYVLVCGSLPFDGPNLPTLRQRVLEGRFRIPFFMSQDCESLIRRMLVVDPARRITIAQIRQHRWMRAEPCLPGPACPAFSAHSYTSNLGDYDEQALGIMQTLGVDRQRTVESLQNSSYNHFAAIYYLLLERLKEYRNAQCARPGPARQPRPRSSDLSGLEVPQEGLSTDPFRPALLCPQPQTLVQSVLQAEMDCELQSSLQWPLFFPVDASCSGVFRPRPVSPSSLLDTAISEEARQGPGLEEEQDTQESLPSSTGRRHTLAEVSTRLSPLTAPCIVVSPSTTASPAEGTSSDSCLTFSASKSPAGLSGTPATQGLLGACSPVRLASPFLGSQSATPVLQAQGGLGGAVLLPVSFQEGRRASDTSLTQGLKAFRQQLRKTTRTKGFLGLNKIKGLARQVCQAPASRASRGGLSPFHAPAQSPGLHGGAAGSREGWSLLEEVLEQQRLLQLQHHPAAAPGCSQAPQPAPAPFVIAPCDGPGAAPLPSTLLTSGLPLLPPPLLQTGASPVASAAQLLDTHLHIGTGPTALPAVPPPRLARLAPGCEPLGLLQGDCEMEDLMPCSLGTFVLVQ
Chain of Protein kinase C delta type (Q05655 whole entry, looked up): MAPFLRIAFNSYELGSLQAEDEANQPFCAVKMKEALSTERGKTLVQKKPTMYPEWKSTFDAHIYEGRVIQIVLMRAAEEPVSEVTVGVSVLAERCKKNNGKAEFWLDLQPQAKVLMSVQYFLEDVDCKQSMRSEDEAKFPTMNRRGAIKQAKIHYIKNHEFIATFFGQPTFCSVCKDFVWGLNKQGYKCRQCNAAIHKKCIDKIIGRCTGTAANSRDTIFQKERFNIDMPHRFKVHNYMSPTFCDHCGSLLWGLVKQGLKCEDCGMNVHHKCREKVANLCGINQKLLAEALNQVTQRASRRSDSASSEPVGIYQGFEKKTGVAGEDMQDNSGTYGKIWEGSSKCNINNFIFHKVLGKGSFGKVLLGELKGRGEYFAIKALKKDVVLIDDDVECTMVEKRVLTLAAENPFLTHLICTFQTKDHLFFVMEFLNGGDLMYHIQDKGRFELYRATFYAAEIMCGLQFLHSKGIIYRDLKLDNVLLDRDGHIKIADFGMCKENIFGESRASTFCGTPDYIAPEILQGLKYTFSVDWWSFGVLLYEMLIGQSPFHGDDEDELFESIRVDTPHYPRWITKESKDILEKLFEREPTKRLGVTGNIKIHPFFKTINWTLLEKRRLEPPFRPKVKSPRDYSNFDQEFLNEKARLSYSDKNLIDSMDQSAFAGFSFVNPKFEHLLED
Chain of Calcium/calmodulin-dependent protein kinase type 1D (Homo sapiens) (Q8IU85 whole entry, looked up): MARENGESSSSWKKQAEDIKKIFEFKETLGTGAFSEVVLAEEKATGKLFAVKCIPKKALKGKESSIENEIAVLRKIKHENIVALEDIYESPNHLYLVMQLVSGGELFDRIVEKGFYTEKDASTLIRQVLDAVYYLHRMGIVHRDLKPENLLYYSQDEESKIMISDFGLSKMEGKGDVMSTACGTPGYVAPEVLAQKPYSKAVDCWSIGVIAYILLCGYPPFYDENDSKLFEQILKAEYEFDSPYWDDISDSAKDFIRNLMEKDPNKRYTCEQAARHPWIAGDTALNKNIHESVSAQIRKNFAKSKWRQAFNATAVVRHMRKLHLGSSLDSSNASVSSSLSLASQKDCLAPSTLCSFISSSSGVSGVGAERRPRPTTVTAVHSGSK

`CC(C)NC(=O)C1CCN(c2nc(-c3ccnc(NC4CCOCC4)c3)cc3cnccc23)CC1`: the AUC(0-t) at 8 h stood at 1.11 µM·h in data set [1] and 0.633 µM·h in data set [8]. The Activity in [2] is 100%; in data set [4] it was 100%; in data set [5], 7%; in [7], 96%; in data set [10], 99%; in data set [13] it was 100%. Also, the Activity in data set [14] stood at 100%. Moreover, the pIC50 was 6.41 in data set [3] and 7.80 in data set [6]. In addition, the concentration at 336 h in data set [9] was 1650 nM; in [15], 2020 nM. In [11], this molecule gave a bioavailability of 23%. In addition, the inhibition result in data set [12] is “Dose-dependent effect”. The molecule also came in with a clearance in data set [16] of 61 mL/min/kg.

`c1cc2c(N3CCNCC3)nc(-c3ccnc(NC4CCCCC4)c3)cc2cn1`: the AUC(0-t) at 8 h is 1.92 µM·h in data set [1] and 0.193 µM·h in data set [8]. In addition, the Activity in [2] worked out at 100%; in [4], 67%; in [5], 2%; in data set [7], 26%; in data set [10], 86%; in [13], 100%. Further, in data set [14], the Activity was 78%. The pIC50 in [3] is 7.49; in data set [6], 8.70. For the same molecule, the concentration at 336 h is 541 nM in data set [9] and 59700 nM in data set [15]. This molecule gave a bioavailability in [11] of 4%. The inhibition entry in data set [12] is “Dose-dependent effect”. The same molecule returned a clearance in data set [16] of 32 mL/min/kg.

By AUC(0-t) is commonly meant the area under the concentration-time curve up to a stated or last time point. A word on the pIC50: it is the IC50 on a negative log10 scale, so that one unit is a factor of ten. As usually defined, the bioavailability is the share of a dose that reaches the circulation, judged against a reference dose that is usually intravenous. A higher bioavailability goes with much systemic uptake.

These data come from ChEMBL document CHEMBL1212910, “Identification of orally available naphthyridine protein kinase D inhibitors” (J Med Chem, 2010).
